For this assay, the target named is human PD-L1 (Homo sapiens (Human), UniProt Q9NZQ7). Description: T cell activation luciferase reporter cell culture system (T Cell Activation Assay). The class given is cell-based. The following applies: luciferase reporter assay; PD-L1 aAPC/CHO-K1 cells with PD-1 effector Jurkat T cells. For orientation: In a reporter assay the amount or activity of a reporter protein is the signal.

SMILES strings stand for the structures.

One may read the EC50 as the concentration that produces a half-maximal response. A higher EC50 goes with weaker potency.

human PD-L1, sequence (Q9NZQ7 19-290): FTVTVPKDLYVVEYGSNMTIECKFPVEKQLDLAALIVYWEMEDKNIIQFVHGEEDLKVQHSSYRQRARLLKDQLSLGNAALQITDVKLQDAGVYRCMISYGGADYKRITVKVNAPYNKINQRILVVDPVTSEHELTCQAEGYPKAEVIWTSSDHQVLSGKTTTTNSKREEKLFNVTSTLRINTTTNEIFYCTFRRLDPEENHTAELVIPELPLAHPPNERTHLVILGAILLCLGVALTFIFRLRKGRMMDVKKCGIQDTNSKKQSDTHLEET

Regarding `COc1cc(-c2nccc(-c3cccc(-c4ccc(CNC[C@@H]5CCC(=O)N5)c(OC)n4)c3Cl)c2Cl)cc2c1CN(CC(=O)O)CC2` [Cmpd 151, (S)-2-(6-(3-chloro-4-(2-chloro-3-(6-methoxy-5-((((5-oxopyrrolidin-2-yl)methyl)amino)methyl)pyridin-2-yl)phenyl)pyridin-2-yl)-8-methoxy-3,4-dihydroisoquinolin-2(1H)-yl)acetic acid], the EC50 came out at 77.3 nM.

`COc1nc(-c2cccc(-c3ccnc(-c4ccc5c(CNC6CCN(C(C)=O)CC6)cn(C)c5c4)c3Cl)c2Cl)ccc1CNC1CCN(C(C)=O)CC1` [Cmpd 277, 1-(4-(((6-(3-(2-(3-(((1-acetylpiperidin-4-yl)amino)methyl)-1-methyl-1H-indol-6-yl)-3-chloropyridin-4-yl)-2-chlorophenyl)-2-methoxypyridin-3-yl)methyl)amino)piperidin-1-yl)ethan-1-one] had a half-maximal effective concentration (EC50) of 170 nM.

Regarding `COc1cc(-c2nccc(-c3cccc(-c4ccc(CNCCC(=O)O)c(OC)n4)c3Cl)c2Cl)ccc1CNC1CCN(C(C)=O)CC1` [Cmpd 389, 3-(((6-(3-(2-(4-(((1-acetylpiperidin-4-yl)amino)methyl)-3-methoxyphenyl)-3-chloropyridin-4-yl)-2-chlorophenyl)-2-methoxypyridin-3-yl)methyl)amino)propanoic acid], the response was half-maximal at 35.8 nM (EC50).

With `COc1cc(-c2nccc(-c3cccc(-c4ccc(CNC5CCN(C(C)=O)CC5)c(OC)n4)c3C#N)c2Cl)ccc1CNC1CCN(C(C)=O)CC1` [Cmpd 615, 2-(2-(4-(((1-acetylpiperidin-4-yl)amino)methyl)-3-methoxyphenyl)-3-chloropyridin-4-yl)-6-(5-(((1-acetylpiperidin-4-yl)amino)methyl)-6-methoxypyridin-2-yl)benzonitrile], the response was half-maximal at 272 nM (EC50).

In turn, `COc1nc(-c2cccc(-c3ccnc(-c4cc(OC)c5nc(CNC(C)C)nn5c4)c3Cl)c2Cl)ccc1CNC1CCN(C(C)=O)CC1` [Cmpd 644, 1-(4-(((6-(2-chloro-3-(3-chloro-2-(2-((isopropylamino)methyl)-8-methoxy-[1,2,4]triazolo[1,5-a]pyridin-6-yl)pyridin-4-yl)phenyl)-2-methoxypyridin-3-yl)methyl)amino)piperidin-1-yl)ethan-1-one] had a concentration for a half-maximal effect (EC50) of 84.8 nM. This EC50 lies about 3.2-fold lower than the previous one.

In turn, `COc1cc(-c2nccc(-c3ccnc(-c4cc(F)c(CN5CC6(CNC(=O)C6)C5)c(OC)c4)c3Cl)c2Cl)cc(F)c1CN1CC2(CNC(=O)C2)C1` [Compound 323, 2,2′-(((3,3′-Dichloro-[4,4′-bipyridine]-2,2′-diyl)bis(2-fluoro-6-methoxy-4,1-phenylene))bis(methylene))bis(2,6-diazaspiro[3.4]octan-7-one)] registered an EC50 of 164 nM.

`COc1nc(-c2cncc(-c3cccc(NC(=O)c4cn(C)c(=O)n(C)c4=O)c3Cl)c2Cl)ccc1CNC[C@@H]1CCC(=O)N1` [Compound 712, (S)—N-(2-Chloro-3-(4′-chloro-6-methoxy-5-((((5-oxopyrrolidin-2-yl)methyl)amino)methyl)-[2,3′-bipyridin]-5′-yl)phenyl)-1,3-dimethyl-2,4-dioxo-1,2,3,4-tetrahydropyrimidine-5-carboxamide] yielded an EC50 of 89.1 nM.

`COc1nc(-c2ccnc(-c3cccc(NC(=O)c4cn(C)c(=O)n(C)c4=O)c3Cl)c2Cl)ccc1CNC[C@@H]1CCC(=O)N1` [Compound 718, (S)—N-(2-Chloro-3-(3′-chloro-6-methoxy-5-((((5-oxopyrrolidin-2-yl)methyl)amino)methyl)-[2,4′-bipyridin]-2′-yl)phenyl)-1,3-dimethyl-2,4-dioxo-1,2,3,4-tetrahydropyrimidine-5-carboxamide] returned an EC50 of 81.5 nM.

Regarding `COc1nc(-c2ccnc(-c3cccc(NC(=O)c4cn(C)c(=O)n(C)c4=O)c3Cl)c2Cl)ccc1CN1CC2(CNC(=O)C2)C1` [Compound 719, N-(2-Chloro-3-(3′-chloro-6-methoxy-5-((7-oxo-2,6-diazaspiro[3.4]octan-2-yl)methyl)-[2,4′-bipyridin]-2′-yl)phenyl)-1,3-dimethyl-2,4-dioxo-1,2,3,4-tetrahydropyrimidine-5-carboxamide], the concentration giving a half-maximal response (EC50) was 420 nM.

`COc1nc(-c2cncc(-c3cccc(NC(=O)c4cn(C)c(=O)n(C)c4=O)c3Cl)c2Cl)ccc1CN1CC2(CNC(=O)C2)C1` [Compound 722, N-(2-Chloro-3-(4′-chloro-6-methoxy-5-((7-oxo-2,6-diazaspiro[3.4]octan-2-yl)methyl)-[2,3′-bipyridin]-5′-yl)phenyl)-1,3-dimethyl-2,4-dioxo-1,2,3,4-tetrahydropyrimidine-5-carboxamide] gave an EC50 of 818 nM.

Compound `COc1nc(-c2cncc(-c3cccc(NC(=O)c4cn(C)c(=O)n(C)c4=O)c3Cl)c2Cl)ccc1CNC1CCN(C(C)=O)CC1` [Compound 723, N-(3-(5-(((1-Acetylpiperidin-4-yl)amino)methyl)-4′-chloro-6-methoxy-[2,3′-bipyridin]-5′-yl)-2-chlorophenyl)-1,3-dimethyl-2,4-dioxo-1,2,3,4-tetrahydropyrimidine-5-carboxamide] yielded an EC50 of 1850 nM.

In turn, `COc1nc(-c2cncc(-c3cccc(NC(=O)c4cn(C)c(=O)n(C)c4=O)c3Cl)c2Cl)ccc1CNC[C@H](C)O` [Compound 729, (S)—N-(2-Chloro-3-(4′-chloro-5-(((2-hydroxypropyl)amino)methyl)-6-methoxy-[2,3′-bipyridin]-5′-yl)phenyl)-1,3-dimethyl-2,4-dioxo-1,2,3,4-tetrahydropyrimidine-5-carboxamide] came in with an EC50 of 652 nM.

`COc1nc(-c2cncc(-c3cccc(NC(=O)c4cn(C)c(=O)n(C)c4=O)c3Cl)c2Cl)ccc1CN1CC2(C1)CN(C(C)=O)C2` [Compound 730, N-(3-(5-((6-Acetyl-2,6-diazaspiro[3.3]heptan-2-yl)methyl)-4′-chloro-6-methoxy-[2,3′-bipyridin]-5′-yl)-2-chlorophenyl)-1,3-dimethyl-2,4-dioxo-1,2,3,4-tetrahydropyrimidine-5-carboxamide] showed a half-maximal effective concentration (EC50) of 1100 nM.

In the case of `COc1nc(-c2cccc(-c3ccnc(-c4cc5c(=O)n(C)c(CN6CC(C)(O)C6)nn5c4)c3Cl)c2Cl)ccc1CN[C@H]1C[C@](C)(O)C1` [Example 232, 6-(3-Chloro-4-(2-chloro-3-(5-((((1r,3r)-3-hydroxy-3-methylcyclobutyl)amino)methyl)-6-methoxypyridin-2-yl)phenyl)pyridin-2-yl)-2-((3-hydroxy-3-methylazetidin-1-yl)methyl)-3-methylpyrrolo[2,1-f][1,2,4]triazin-4(3H)-one], a half-maximal response (EC50) required 102 nM. Compared with the last compound, the EC50 is about 11-fold lower.

Take `COc1nc(-c2cccc(-c3ccnc(-c4cc5c(=O)n(C)c(CN6CC(C)(O)C6)nn5c4)c3Cl)c2Cl)ccc1CNC(C)C` [Example 233, 6-(3-Chloro-4-(2-chloro-3-(5-((isopropylamino)methyl)-6-methoxypyridin-2-yl)phenyl)pyridin-2-yl)-2-((3-hydroxy-3-methylazetidin-1-yl)methyl)-3-methylpyrrolo[2,1-f][1,2,4]triazin-4(3H)-one]: the EC50 was ≥ 10000 nM.

Compound `COc1nc(-c2cccc(-c3ccnc(-c4cc5c(=O)n(C)c(CN6CC(C)(O)C6)nn5c4)c3Cl)c2Cl)ccc1CN[C@H]1CC[C@H](O)CC1` [Example 234, 6-(3-Chloro-4-(2-chloro-3-(5-((((1r,4r)-4-hydroxycyclohexyl)amino)methyl)-6-methoxypyridin-2-yl)phenyl)pyridin-2-yl)-2-((3-hydroxy-3-methylazetidin-1-yl)methyl)-3-methylpyrrolo[2,1-f][1,2,4]triazin-4(3H)-one] had an EC50 of 143 nM.

As for `COc1nc(-c2cccc(-c3ccnc(-c4ccc5c(CNC[C@@H]6CCO6)nn(C)c5c4)c3Cl)c2Cl)ccc1CNC[C@@H]1CCC(=O)N1` [Example 235, (S)-5-((((6-(2-Chloro-3-(3-chloro-2-(1-methyl-3-(((((S)-oxetan-2-yl)methyl)amino)methyl)-1H-indazol-6-yl)pyridin-4-yl)phenyl)-2-methoxypyridin-3-yl)methyl)amino)methyl)pyrrolidin-2-one], it took 65.1 nM to reach a half-maximal effect (EC50).

In the case of `COc1cc(-c2nccc(-c3cccc(-c4ccc5c(OC)c(CNC[C@@H]6CCC(=O)N6)cc(Cl)c5n4)c3Cl)c2Cl)cc(F)c1CNC[C@@H]1CCC(=O)N1` [Example 236, (S)-5-((((8-Chloro-2-(2-chloro-3-(3-chloro-2-(3-fluoro-5-methoxy-4-(((((S)-5-oxopyrrolidin-2-yl)methyl)amino)methyl)phenyl)pyridin-4-yl)phenyl)-5-methoxyquinolin-6-yl)methyl)amino)methyl)pyrrolidin-2-one], the EC50 was found to be 53.9 nM.

In the case of `COc1cc(-c2nccc(-c3cccc(-c4ccc(CNC[C@@H]5CCC(=O)N5)c(OC)n4)c3Cl)c2Cl)ccc1CNC1CC2(C1)CN(C(C)=O)C2` [Example 237, (S)-5-((((6-(3-(2-(4-(((2-acetyl-2-azaspiro[3.3]heptan-6-yl)amino)methyl)-3-methoxyphenyl)-3-chloropyridin-4-yl)-2-chlorophenyl)-2-methoxypyridin-3-yl)methyl)amino)methyl)pyrrolidin-2-one], the EC50 worked out at 22.1 nM.

In turn, `COc1cc(-c2nccc(-c3cccc(-c4ccc5c(OC)c(CNCCO)cc(Cl)c5n4)c3Cl)c2Cl)ccc1CNC[C@@H]1CCC(=O)N1` [Example 238, (S)-5-(((4-(3-chloro-4-(2-chloro-3-(8-chloro-6-(((2-hydroxyethyl)amino)methyl)-5-methoxyquinolin-2-yl)phenyl)pyridin-2-yl)-2-methoxybenzyl)amino)methyl)pyrrolidin-2-one] registered an EC50 of 128 nM. This EC50 lies about 5.8-fold higher than the previous one.

As for `CNCc1ccc(-c2nccc(-c3cccc(-c4ccc(CNC5CCN(C(C)=O)CC5)c(OC)n4)c3Cl)c2Cl)cc1OC` [Example 240, 1-(4-(((6-(2-chloro-3-(3-chloro-2-(3-methoxy-4-((methylamino)methyl)phenyl)pyridin-4-yl)phenyl)-2-methoxypyridin-3-yl)methyl)amino)piperidin-1-yl)ethan-1-one], the EC50 amounted to 29.1 nM. This EC50 lies about 4.4-fold lower than the previous one.

Consider `COc1cc(-c2cccc(-c3ccnc(-c4ccc5c(c4)CN(CCNC[C@@H]4CCC(=O)N4)C5=O)c3Cl)c2Cl)cc(F)c1CNC[C@@H]1CCC(=O)N1` [Example 242, 5-(3-Chloro-4-(2-chloro-3′-fluoro-5′-methoxy-4′-(((((S)-5-oxopyrrolidin-2-yl)methyl)amino)methyl)-[1,1′-biphenyl]-3-yl)pyridin-2-yl)-2-(2-((((S)-5-oxopyrrolidin-2-yl)methyl)amino)ethyl)isoindolin-1-one], for which the EC50 worked out at 437 nM. This EC50 lies about 15-fold higher than the previous one.

The record behind these values is US20240246964A1 (Arbutus Biopharma Corporation, priority 2021, published 2024).
